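Values below derive from 48-hour exposures of cells grown in 96-well plates, with endpoints linearly interpolated between the two concentrations bracketing the appropriate inhibition level. TGI: concentration producing complete growth inhibition.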
Tests used:
Experiment in all cases: NCI-60 cell line screen, 48 h
UACC-257 melanoma = test system: UACC-257 melanoma
TK-10 renal = test system: TK-10 renal
NCI-H460 lung = test system: NCI-H460 lung
UO-31 renal = test system: UO-31 renal
M14 melanoma = test system: M14 melanoma
HL-60(TB) leukemia = test system: HL-60(TB) leukemia
SK-MEL-2 melanoma = test system: SK-MEL-2 melanoma
MOLT-4 leukemia = test system: MOLT-4 leukemia
786-0 renal = test system: 786-0 renal
MALME-3M melanoma = test system: MALME-3M melanoma
SR leukemia = test system: SR leukemia
NCI-H23 lung = test system: NCI-H23 lung
UACC-62 melanoma = test system: UACC-62 melanoma
U251 CNS = test system: U251 CNS
SK-MEL-28 melanoma = test system: SK-MEL-28 melanoma
EKVX NSCLC = test system: EKVX NSCLC
OVCAR-5 ovarian = test system: OVCAR-5 ovarian
NCI/ADR-RES ovarian = test system: NCI/ADR-RES ovarian
DU-145 prostate = test system: DU-145 prostate
MDA-MB-231 breast = test system: MDA-MB-231 breast

Measured: TGI

Cc1nc2c(n1CCN(C)C)C(=O)c1ccccc1C2=O
27.1 µM: UACC-257 melanoma
73.2 µM: SR leukemia
8.06 µM: MALME-3M melanoma
25.8 µM: UACC-62 melanoma
26.2 µM: SK-MEL-2 melanoma
32.2 µM: U251 CNS | EKVX NSCLC
24.1 µM: M14 melanoma
49 µM: UO-31 renal
> 100 µM: TK-10 renal | 786-0 renal | SK-MEL-28 melanoma
30.7 µM: HL-60(TB) leukemia
24.5 µM: NCI-H23 lung
62.1 µM: MOLT-4 leukemia
45.5 µM: NCI-H460 lung

NC(=S)N/N=c1\cc(C(=O)Nc2ccc([N+](=O)[O-])cc2[N+](=O)[O-])oc2ccccc12
not listed: MALME-3M melanoma | SR leukemia
> 100 µM: all other assays above

COC(=O)C1N=CSCC1(C)O (configuration not stated)
not listed: SR leukemia | U251 CNS | NCI/ADR-RES ovarian | DU-145 prostate | MDA-MB-231 breast
> 100 µM: all other assays above

Cc1n[nH]c(=O)n1/N=C/c1ccncc1
not listed: HL-60(TB) leukemia | SR leukemia
> 100 µM: all other assays above

Cn1c(=O)cc(NCCc2ccccc2)[nH]c1=O
98 µM: NCI/ADR-RES ovarian
50 µM: MDA-MB-231 breast
not listed: HL-60(TB) leukemia | SR leukemia
> 100 µM: all other assays above

CC(C(=O)c1ccc(Cl)cc1)C1OC(=O)C(Cl)=C1Cl (configuration not stated)
57.1 µM: SK-MEL-28 melanoma
47.6 µM: HL-60(TB) leukemia
71.1 µM: NCI-H23 lung
36 µM: 786-0 renal
41.7 µM: MALME-3M melanoma
48.9 µM: SK-MEL-2 melanoma
64 µM: MOLT-4 leukemia
46.7 µM: UACC-62 melanoma
not listed: SR leukemia | NCI/ADR-RES ovarian | DU-145 prostate | MDA-MB-231 breast
> 100 µM: all other assays above

CCCCCCCCCCCC(O)=C1C(=O)CC(O)CC1=O (configuration not stated)
58.7 µM: HL-60(TB) leukemia
not listed: MALME-3M melanoma | NCI/ADR-RES ovarian | DU-145 prostate | MDA-MB-231 breast
> 100 µM: all other assays above

Source: PubChem BioAssay (NCI)
